7 compounds from patent publication US10413593B2 (priority 2014, dated 2019) can be followed below.

A short description of test [1]: Cumulative body weight change in DIO mice, daily s.c. dosing for nine days (Example 18, FIG. 1). Particulars: 9 nmol/kg s.c. daily, day 9. Format: in vivo, mice (strain C57Bl6/NTac). On the procedure:
Mice were administered a vehicle control or a dose of a peptide daily for nine days. […] The peptide of SEQ ID NO: 9 was administered at doses of 9 and 25 nmol/kg. Cumulative body weight change (grams) was measured each day of the study except on day 3. Results are shown in FIG. 1 and are expressed as mean±SEM.

A short description of test [2]: Second study in DIO mice: body weight change percent relative to vehicle (Example 19, FIG. 2). The format is in vivo, mice (strain C57Bl6/NTac). Particulars: eight days. The protocol:
In addition, the peptide of SEQ ID NO: 8 was administered at 15 nmol/kg, while the peptide of SEQ ID NOs: 10 and 11 were administered at 3 nmol/kg. Body weight was measured daily for eight days and body weight change is expressed as percent relative to vehicle (FIG. 2).

Test [3] can be described thus: Ambient glucose in DIO mice (Example 21, FIG. 4). Conditions: for change in ambient glucose compared to vehicle: day 9 of dosing. Format: in vivo, mice (strain C57Bl6/NTac). The protocol:
In addition to cumulative body weight change, ambient glucose levels of the DIO mice (strain C57Bl6/NTac) were measured periodically throughout the study.

The next test has as its target T1, human GCGR (Homo sapiens, UniProt P47871).
T1 construct: expressed in transfected cells
The test can be described thus: cAMP assay in cells expressing human GCGR (HitHunter cAMP XS). Format: cell-based. Conditions: for hGCGR/hGLP1R (hTone): ratio of EC50 at human GCGR to EC50 at human GLP1R; for EC50: cAMP production, cells expressing human GCGR, assay buffer with 20% human serum, 1 hour. On the technique in general: cAMP levels reflect the balance of adenylyl cyclase and phosphodiesterase activity.

For a further test, the target named is T2, human GLP-1R (Homo sapiens, UniProt P43220).
T2 construct: expressed in transfected cells
T2 sequence (P43220 24-463): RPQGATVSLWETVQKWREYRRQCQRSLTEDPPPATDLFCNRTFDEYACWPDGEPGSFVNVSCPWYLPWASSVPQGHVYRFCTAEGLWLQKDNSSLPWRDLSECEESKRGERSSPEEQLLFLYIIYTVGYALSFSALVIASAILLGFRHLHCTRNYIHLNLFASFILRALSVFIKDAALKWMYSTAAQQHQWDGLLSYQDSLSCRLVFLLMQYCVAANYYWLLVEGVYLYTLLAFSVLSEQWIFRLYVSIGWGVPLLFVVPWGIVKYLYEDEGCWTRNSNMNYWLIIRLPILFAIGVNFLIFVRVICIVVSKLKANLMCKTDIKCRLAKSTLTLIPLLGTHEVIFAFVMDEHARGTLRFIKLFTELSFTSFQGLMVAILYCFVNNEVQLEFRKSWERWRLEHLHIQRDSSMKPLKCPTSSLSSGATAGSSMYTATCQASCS
The test can be described thus: cAMP assay in cells expressing human GLP-1R (HitHunter cAMP XS). Format: cell-based. Conditions: cAMP production, assay buffer with 20% human serum, 1 hour, read-out: GLPR1 EC50 (nM) human.

*1 amine or outer side, *2 acyl side, *3 side chain or, on linkers, in order; H or OH if unused. Where a SMILES comes first, the peptide text is derived from it. Where no end group is shown, it is not given here. Side-chain parts run from the residue outwards. [ ]: non-standard residue; d: D form. The star is where a group is joined. C16 = palmitoyl, CCCCCCCCCCCCCCCC(=O)*; γGlu = O=C(O)[C@H](CCC(=O)[*:2])N[*:1]; X1 = O=C(C(N[*:1])C(O)c1ccccc1)[*:2]; Palmitoyl = CCCCCCCCCCCCCCCC(=O)*

T1 sequence (P47871 26-477): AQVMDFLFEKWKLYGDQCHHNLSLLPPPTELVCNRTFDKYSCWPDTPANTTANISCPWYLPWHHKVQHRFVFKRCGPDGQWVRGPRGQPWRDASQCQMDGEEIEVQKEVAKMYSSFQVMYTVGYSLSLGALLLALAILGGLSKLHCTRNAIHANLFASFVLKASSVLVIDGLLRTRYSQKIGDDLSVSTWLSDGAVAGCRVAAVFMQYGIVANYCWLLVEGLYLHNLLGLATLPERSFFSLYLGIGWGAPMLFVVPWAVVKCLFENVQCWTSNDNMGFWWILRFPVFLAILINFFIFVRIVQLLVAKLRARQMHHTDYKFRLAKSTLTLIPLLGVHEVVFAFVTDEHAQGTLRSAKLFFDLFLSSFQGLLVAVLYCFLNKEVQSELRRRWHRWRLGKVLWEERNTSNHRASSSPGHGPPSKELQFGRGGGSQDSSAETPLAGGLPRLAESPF
Experimental for human GCGR: The cAMP protocol was as follows.
(§1) Peptides were dissolved in 100% DMSO and serially diluted to generate 11 point titrations. The peptide solutions were then transferred into 384-well assay plates (150 nL/well). Assay ready frozen cells expressing human GLP-1R or human GCGR were suspended in growth media consisting of DMEM/F12 medium (GIBCO), 10% FBS (GIBCO), lx P/S (GIBCO), 800 μg/mL Geneticin (GIBCO), and 300 μg/mL Hygromycin (Invitrogen). Cells were then diluted in assay buffer consisting of PBS (GIBCO), 7.5% BSA (Perkin Elmer), 100 μM RO 20-1724 (Sigma), and 20% human serum (MP Biomedical). The cell suspensions (15 μL) were then added to the assay plates containing the peptide solutions (30,000 cells/well for human GCGR; 20,000 cells/well for GLP1R). The cells were incubated for 1 hour at room temperature in the dark. Production of cAMP was determined using HitHunter™ cAMPXS kits (DiscoverX). ED buffer (20 μL) was then added to each well and the plates were incubated for 1 hour at room temperature in the dark. Subsequently, EA buffer (20 μL) was added to each well, and the plates were incubated for 1-18 hours at room temperature in the dark. Luminescence was measured using an EnVision Multilabel plate reader (Perkin Elmer). EC50 values were calculated using ADA data analyzer software.
Experimental for human GLP-1R: The cAMP protocol was as follows.
as §1

`CCCCCCCCCCCCCCCC(=O)N[C@@H](CCC(=O)NCCCC[C@H](NC(=O)[C@H](CC(=O)O)NC(=O)[C@H](CO)NC(=O)[C@@H](NC(=O)[C@H](Cc1ccccc1)NC(=O)[C@@H](NC(=O)CNC(=O)[C@H](CCC(N)=O)NC(=O)[C@@H](CO)NC(=O)[C@@H](N)Cc1c[nH]cn1)[C@@H](C)O)[C@@H](C)O)C(=O)N[C@@H](CO)C(=O)N[C@@H](CCCCN)C(=O)N[C@@H](Cc1ccc(O)cc1)C(=O)N[C@@H](CC(C)C)C(=O)N[C@@H](CC(=O)O)C(=O)N[C@@H](C)C(=O)N[C@@H](CCCNC(=N)N)C(=O)N[C@@H](C)C(=O)N[C@@H](C)C(=O)N[C@@H](CCC(N)=O)C(=O)N[C@@H](CC(=O)O)C(=O)N[C@@H](Cc1ccccc1)C(=O)N[C@H](C(=O)N[C@@H](CCC(N)=O)C(=O)N[C@@H](Cc1c[nH]c2ccccc12)C(=O)N[C@@H](CC(C)C)C(=O)N[C@@H](CC(C)C)C(=O)N[C@@H](CC(=O)O)C(=O)N[C@H](C(N)=O)[C@@H](C)O)C(C)C)C(=O)O` [SEQ ID NO: 6]: the body weight loss in test [1] came out at 10.5 grams. Further, the “weight loss, percent relative to vehicle” value in test [2] (9 nmol/kg daily) is “approximately 20%”. In addition, the “decrease in ambient glucose compared to vehicle” value in test [3] (9 nmol/kg, day 7 of dosing) is -60 mg/dL.
As for `CCCCCCCCCCCCCCCC(=O)N[C@@H](CCC(=O)N[C@@H](CCC(=O)NCCCC[C@H](NC(=O)[C@H](CC(=O)O)NC(=O)[C@H](CO)NC(=O)[C@@H](NC(=O)[C@H](Cc1ccccc1)NC(=O)[C@@H](NC(=O)CNC(=O)[C@H](CCC(N)=O)NC(=O)[C@@H](CO)NC(=O)[C@@H](N)Cc1c[nH]cn1)[C@@H](C)O)[C@@H](C)O)C(=O)N[C@@H](CO)C(=O)N[C@@H](CCCCN)C(=O)N[C@@H](Cc1ccc(O)cc1)C(=O)N[C@@H](CC(C)C)C(=O)N[C@@H](CC(=O)O)C(=O)N[C@H](C(=O)N[C@@H](CCCNC(=N)N)C(=O)N[C@@H](C)C(=O)N[C@@H](C)C(=O)N[C@@H](CCC(N)=O)C(=O)N[C@@H](CC(=O)O)C(=O)N[C@@H](Cc1ccccc1)C(=O)N[C@H](C(=O)N[C@@H](CCC(N)=O)C(=O)N[C@@H](Cc1c[nH]c2ccccc12)C(=O)N[C@@H](CC(C)C)C(=O)N[C@@H](CC(C)C)C(=O)N[C@@H](CC(=O)O)C(=O)N[C@H](C(N)=O)[C@@H](C)O)C(C)C)C(C)C)C(=O)O)C(=O)O` [SEQ ID NO: 8], the body weight loss in test [1] stood at 8 grams. The figures for the “weight loss, percent relative to vehicle” value in test [2] (9 nmol/kg daily) and in test [2] (15 nmol/kg daily) were “approximately 17%” and “approximately 25%”, respectively. The “change in ambient glucose compared to vehicle” value (shortened to “change in ambient glucose”) in test [3] (9 nmol/kg) is -72 mg/dL.
In test [1], `CCCCCCCCCCCCCCCC(=O)N[C@@H](CCC(=O)N[C@@H](CCC(=O)NCCCC[C@H](NC(=O)[C@H](CC(=O)O)NC(=O)[C@H](CO)NC(=O)[C@@H](NC(=O)[C@H](Cc1ccccc1)NC(=O)[C@@H](NC(=O)CNC(=O)[C@@H](NC(=O)C(C)(C)NC(=O)[C@@H](N)Cc1c[nH]cn1)C(C)C)[C@@H](C)O)[C@@H](C)O)C(=O)N[C@@H](CO)C(=O)N[C@@H](CCCCN)C(=O)N[C@@H](Cc1ccc(O)cc1)C(=O)N[C@@H](CC(C)C)C(=O)N[C@@H](CC(=O)O)C(=O)NC(C)(C)C(=O)N[C@@H](CCCNC(=N)N)C(=O)N[C@@H](C)C(=O)N[C@@H](C)C(=O)N[C@@H](CCC(N)=O)C(=O)N[C@@H](CC(=O)O)C(=O)N[C@@H](Cc1ccccc1)C(=O)N[C@H](C(=O)N[C@@H](CCC(N)=O)C(=O)N[C@@H](Cc1c[nH]c2ccccc12)C(=O)N[C@@H](CC(C)C)C(=O)N[C@@H](CCCC)C(=O)N[C@@H](CC(=O)O)C(=O)N[C@H](C(N)=O)[C@@H](C)O)C(C)C)C(=O)O)C(=O)O` [SEQ ID NO: 9] gave a body weight loss of approximately 3 grams. Besides, the “weight loss, percent relative to vehicle” value in test [2] (9 nmol/kg daily) is reported as “approximately 5%”. For the same compound, in test [3] (9 nmol/kg), the “change in ambient glucose” value was “did not exhibit significant changes in ambient glucose”. Moreover, the “decrease in ambient glucose compared to vehicle” value in test [3] (25 nmol/kg, second day of dosing) was -75 mg/dL.
With `CCCCCCCCCCCCCCCC(=O)N[C@@H](CCC(=O)N[C@@H](CCC(=O)NCCCC[C@H](NC(=O)[C@H](CC(=O)O)NC(=O)[C@H](CO)NC(=O)[C@@H](NC(=O)[C@H](Cc1ccccc1)NC(=O)[C@@H](NC(=O)CNC(=O)[C@H](CCC(N)=O)NC(=O)[C@H](C)NC(=O)[C@H](Cc1c[nH]cn1)NC(C)=O)[C@@H](C)O)[C@@H](C)O)C(=O)N[C@@H](CO)C(=O)N[C@@H](CCCCN)C(=O)N[C@@H](Cc1ccc(O)cc1)C(=O)N[C@@H](CC(C)C)C(=O)N[C@@H](CC(=O)O)C(=O)N[C@@H](CCC(=O)O)C(=O)N[C@@H](CCCNC(=N)N)C(=O)N[C@@H](C)C(=O)N[C@@H](C)C(=O)N[C@@H](CCC(N)=O)C(=O)N[C@@H](CC(=O)O)C(=O)N[C@@H](Cc1ccccc1)C(=O)N[C@H](C(=O)N[C@@H](CCC(N)=O)C(=O)N[C@@H](Cc1c[nH]c2ccccc12)C(=O)N[C@@H](CC(C)C)C(=O)N[C@@H](CC(C)C)C(=O)N[C@@H](CC(=O)O)C(=O)N[C@H](C(N)=O)[C@@H](C)O)C(C)C)C(=O)O)C(=O)O` [compound 12], the “hGCGR/hGLP1R (hTone)” value at human GCGR turned out to be 1.00.
The EC50 is the concentration needed to bring the measured effect to its halfway point. `CCCCCCCCCCCCCCCC(=O)N[C@@H](CCC(=O)N[C@@H](CCC(=O)NCCCC[C@H](NC(=O)[C@H](CC(=O)O)NC(=O)[C@H](CO)NC(=O)[C@@H](NC(=O)[C@H](Cc1ccc(F)cc1)NC(=O)[C@@H](NC(=O)CNC(=O)[C@H](CCC(N)=O)NC(=O)[C@@H](CO)NC(=O)[C@@H](N)Cc1c[nH]cn1)[C@@H](C)O)[C@@H](C)O)C(=O)N[C@@H](CO)C(=O)N[C@@H](CCCCN)C(=O)N[C@@H](Cc1ccc(O)cc1)C(=O)N[C@@H](CC(C)C)C(=O)N[C@@H](CC(=O)O)C(=O)N[C@@H](CCC(=O)O)C(=O)N[C@@H](CCCNC(=N)N)C(=O)N[C@@H](C)C(=O)N[C@@H](C)C(=O)N[C@@H](CCC(N)=O)C(=O)N[C@@H](CC(=O)O)C(=O)N[C@@H](Cc1ccccc1)C(=O)N[C@H](C(=O)N[C@@H](CCC(N)=O)C(=O)N[C@@H](Cc1c[nH]c2ccccc12)C(=O)N[C@@H](CC(C)C)C(=O)N[C@@H](CC(C)C)C(=O)N[C@@H](CC(=O)O)C(=O)N[C@H](C(N)=O)[C@@H](C)O)C(C)C)C(=O)O)C(=O)O` [compound 14]: at human GCGR, a half-maximal effect (EC50) was put at 0.05 nM and the “hGCGR/hGLP1R (hTone)” value is 0.93. Also, at human GLP-1R, the EC50 was found to be 0.06 nM.
The corresponding values for `CCCCCCCCCCCCCCCC(=O)N[C@@H](CCC(=O)N[C@@H](CCC(=O)NCCCC[C@H](NC(=O)[C@H](CC(=O)O)NC(=O)[C@H](CO)NC(=O)[C@@H](NC(=O)C(NC(=O)[C@@H](NC(=O)CNC(=O)[C@H](CCC(N)=O)NC(=O)[C@@H](CO)NC(=O)[C@@H](N)Cc1c[nH]cn1)[C@@H](C)O)C(O)c1ccccc1)[C@@H](C)O)C(=O)N[C@@H](CO)C(=O)N[C@@H](CCCCN)C(=O)N[C@@H](Cc1ccc(O)cc1)C(=O)N[C@@H](CC(C)C)C(=O)N[C@@H](CC(=O)O)C(=O)N[C@@H](CCC(=O)O)C(=O)N[C@@H](CCCNC(=N)N)C(=O)N[C@@H](C)C(=O)N[C@@H](C)C(=O)N[C@@H](CCC(N)=O)C(=O)N[C@@H](CC(=O)O)C(=O)N[C@@H](Cc1ccccc1)C(=O)N[C@H](C(=O)N[C@@H](CCC(N)=O)C(=O)N[C@@H](Cc1c[nH]c2ccccc12)C(=O)N[C@@H](CC(C)C)C(=O)N[C@@H](CC(C)C)C(=O)N[C@@H](CC(=O)O)C(=O)N[C@H](C(N)=O)[C@@H](C)O)C(C)C)C(=O)O)C(=O)O` (stereo partly drawn) [compound 19] (H-H[dS]QGT[X1]TSDK([γGlu-γGlu-Palmitoyl])SKYLDERAAQDFVQWLLDT-NH2; N-terminus assumed) are 1.04 nM, 1.02 and 1.02 nM.
“HsQGTFTSDK(γEγEC16)SKYLDVRRAQDFVQWLLDT-NH2 (H[dS]QGTFTSDK([γGlu-γGlu-C16])SKYLDVRRAQDFVQWLLDT-NH2; N-terminus assumed; SMILES CCCCCCCCCCCCCCCC(=O)N[C@@H](CCC(=O)N[C@@H](CCC(=O)NCCCC[C@H](NC(=O)[C@H](CC(=O)O)NC(=O)[C@H](CO)NC(=O)[C@@H](NC(=O)[C@H](Cc1ccccc1)NC(=O)[C@@H](NC(=O)CNC(=O)[C@H](CCC(N)=O)NC(=O)[C@@H](CO)NC(=O)[C@@H](N)Cc1c[nH]cn1)[C@@H](C)O)[C@@H](C)O)C(=O)N[C@@H](CO)C(=O)N[C@@H](CCCCN)C(=O)N[C@@H](Cc1ccc(O)cc1)C(=O)N[C@@H](CC(C)C)C(=O)N[C@@H](CC(=O)O)C(=O)N[C@H](C(=O)N[C@@H](CCCNC(=N)N)C(=O)N[C@@H](CCCNC(=N)N)C(=O)N[C@@H](C)C(=O)N[C@@H](CCC(N)=O)C(=O)N[C@@H](CC(=O)O)C(=O)N[C@@H](Cc1ccccc1)C(=O)N[C@H](C(=O)N[C@@H](CCC(N)=O)C(=O)N[C@@H](Cc1c[nH]c2ccccc12)C(=O)N[C@@H](CC(C)C)C(=O)N[C@@H](CC(C)C)C(=O)N[C@@H](CC(=O)O)C(=O)N[C@H](C(N)=O)[C@@H](C)O)C(C)C)C(C)C)C(=O)O)C(=O)O) [SEQ ID NO: 7]” gave a body weight loss in test [1] of approximately 3 grams. In addition, in test [2] (9 nmol/kg daily), the “weight loss, percent relative to vehicle” value is “approximately 5%”. Moreover, the “change in ambient glucose” value in test [3] (9 nmol/kg) is “did not exhibit significant changes in ambient glucose”.
